Laboratory results: article PMC5681660, “Reduced hepatitis B and D viral entry using clinically applied drugs as novel inhibitors of the bile acid transporter NTCP” (Scientific Reports, 2017)
Where a name gives a salt, the structure may show the parent alone. Read-outs that look alike come from different tables or passages of the source.

Assays:
human NTCP [1] = target: T1, human NTCP (Homo sapiens, UniProt Q14973); experiment: Screening taurocholate uptake assay (96-well, [14C]taurocholate, 10 µM drug)
T1 sequence (Q14973 1-349): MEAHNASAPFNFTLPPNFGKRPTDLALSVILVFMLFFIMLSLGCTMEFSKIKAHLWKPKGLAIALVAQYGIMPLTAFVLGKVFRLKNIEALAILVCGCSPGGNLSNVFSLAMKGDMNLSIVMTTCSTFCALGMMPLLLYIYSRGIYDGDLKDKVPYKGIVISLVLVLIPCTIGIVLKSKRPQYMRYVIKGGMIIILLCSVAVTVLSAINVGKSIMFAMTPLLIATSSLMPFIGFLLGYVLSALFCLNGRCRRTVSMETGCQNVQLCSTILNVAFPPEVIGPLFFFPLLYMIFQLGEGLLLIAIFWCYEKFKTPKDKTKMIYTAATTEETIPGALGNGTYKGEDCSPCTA

human NTCP [2] = target: T1, human NTCP; experiment: Screening fluorescent competitive Myrcludex B-FITC binding assay (96-well, 10 µM drug)
[3] = Prestwick library screen, taurocholate uptake, 10 µM drug
[4] = ranking score beside the functional and binding assay B-scores of the screen
[5] = Prestwick library screen, Myrcludex B-FITC binding, 10 µM drug
[6] = combined ranking from functional and binding screening assays
[7] = screen, 10 µM drug, taurocholate uptake
[8] = screen, 10 µM drug, Myrcludex B-FITC binding
[9] = Prestwick library screen, 10 µM drug, B-score of taurocholate uptake
[10] = combined ranking from functional and binding assay B-scores
[11] = Prestwick library screen, 10 µM drug, B-score of Myrcludex B-FITC binding

| Structure (SMILES) | B-score functional assay (human NTCP [1]; [3]) | Ranking score (human NTCP [1]; [4]) | B-score binding assay (human NTCP [2]; [5]) | Ranking score (human NTCP [1]; [6]) | B-score functional assay (human NTCP [1]; [7]) | B-score binding assay (human NTCP [2]; [8]) | B-score functional assay (human NTCP [1]; [9]) | Ranking score (human NTCP [1]; [10]) | B-score binding assay (human NTCP [2]; [11]) | further results |
| --- | --- | --- | --- | --- | --- | --- | --- | --- | --- | --- |
| CC[C@@H](C(N)=O)N1CCCC1=O [Levetiracetam] | -0.058 | 657.267 | 0.117 |  |  |  |  |  |  |  |
| C[C@@H]1CN([C@H]2CC[C@](C#N)(c3ccc(F)cc3)CC2)CC[C@]1(C(=O)O)c1ccccc1 [Levocabastine hydrochloride] | -0.031 | 801.329 | 1.175 |  |  |  |  |  |  |  |
| C[C@H](N)[C@H](O)c1ccc(O)c(O)c1 [Levonordefrin] |  |  |  | 346.693 | 0.177 | -1.559 |  |  |  |  |
| CCC(=O)O[C@@](Cc1ccccc1)(c1ccccc1)[C@@H](C)CN(C)C [Levopropoxyphene napsylate] |  |  |  |  |  |  |  |  |  | B-score functional assay (human NTCP [1]): 0.245; Ranking score (human NTCP [1]): 726.763; B-score binding assay (human NTCP [2]): 0 |
| CCN(CC)CC(=O)Nc1c(C)cccc1C [Lidocaine hydrochloride] | 0.516 | 815.009 | 0.07 |  |  |  |  |  |  |  |
| CCC[C@@H]1C[C@@H](C(=O)N[C@@H]([C@H]2O[C@H](SC)[C@H](O)[C@@H](O)[C@H]2O)[C@@H](C)O)N(C)C1 [Lincomycin hydrochloride] |  |  |  |  |  |  | 0.903 | 960.458 | 0.419 |  |
| COc1cccc(N(C)C(=S)Oc2ccc3c(c2)CCCC3)n1 [Liranaftate] |  |  |  |  |  |  | 0.374 | 904.804 | 0.615 |  |
| NCCCC[C@H](N[C@@H](CCc1ccccc1)C(=O)O)C(=O)N1CCC[C@H]1C(=O)O [Lisinopril] |  |  |  | 445.618 | 1.757 | -1.412 |  |  |  |  |
| CCn1cc(C(=O)O)c(=O)c2cc(F)c(N3CCNC(C)C3)c(F)c21 (stereo not drawn) [Lomefloxacin hydrochloride] | 0.226 | 831.882 | 0.323 |  |  |  |  |  |  |  |
| COc1ccc(CN2CCN(C(c3ccc(F)cc3)c3ccc(F)cc3)CC2)c(OC)c1OC.Cl.Cl [Lomerizine hydrochloride] |  |  |  | 328.713 | -0.214 | -1.084 |  |  |  |  |
| CN1CCN(C2=Nc3ccccc3Oc3ccc(Cl)cc32)CC1 [Loxapine succinate] |  |  |  | 424.073 | -1.397 | 0.552 |  |  |  |  |
| C#C[C@]1(O)CC[C@H]2[C@@H]3CCC4=CCCC[C@@H]4[C@H]3CC[C@@]21C [Lynestrenol] |  |  |  |  |  |  | 2.662 | 897.58 | 0.007 |  |
| NCc1ccc(S(N)(=O)=O)cc1 [Mafenide hydrochloride] | 0.341 | 703.397 | -0.055 |  |  |  |  |  |  |  |
| CNCCCC12CCC(c3ccccc31)c1ccccc12 [Maprotiline hydrochloride] |  |  |  | 403.36 | -0.051 | -0.835 |  |  |  |  |
| COC(=O)Nc1nc2ccc(C(=O)c3ccccc3)cc2[nH]1 [Mebendazole] |  |  |  | 327.443 | -0.824 | -0.531 |  |  |  |  |
| CN1CCc2c(c3ccccc3n2Cc2ccccc2)C1.O=S(=O)(O)c1cccc2c(S(=O)(=O)O)cccc12 [Mebhydroline 1,5-naphtalenedisulfonate] |  |  |  |  |  |  | 0.022 | 893.031 | 1.889 |  |
| CNC1(C)C2CCC(C2)C1(C)C (stereo not drawn) [Mecamylamine hydrochloride] |  |  |  | 340.338 | -0.591 | -0.663 |  |  |  |  |
| CN(C)CCOC(=O)COc1ccc(Cl)cc1.Cl [Meclofenoxate hydrochloride] |  |  |  | 355.4 | -0.036 | -1.168 |  |  |  |  |
| CC(=O)[C@H]1CC[C@H]2[C@@H]3C[C@H](C)C4=CC(=O)CC[C@]4(C)[C@H]3[C@@H](O)C[C@]12C [Medrysone] |  |  |  | 406.005 | -0.706 | -0.142 |  |  |  |  |
| CCN(CC)CCNC(=O)COc1ccc(OC)cc1.Cl [Mefexamide hydrochloride] |  |  |  |  |  |  | 1.015 | 979.142 | 0.456 |  |
| OC(c1cc(C(F)(F)F)nc2c(C(F)(F)F)cccc12)C1CCCCN1 (stereo not drawn) [Mefloquine hydrochloride] | 1.734 | 704.329 | -0.336 |  |  |  |  |  |  |  |
| CC(=O)O[C@]1(C(C)=O)CC[C@H]2[C@@H]3C=C(C)C4=CC(=O)CC[C@]4(C)[C@H]3CC[C@@]21C [Megestrol acetate] |  |  |  |  |  |  | 0.476 | 869.581 | 0.319 |  |
| COc1ccc2[nH]cc(CCNC(C)=O)c2c1 [Melatonin] |  |  |  |  |  |  | 0.509 | 864.497 | 0.248 |  |

| Structure (SMILES) | B-score functional assay (human NTCP [1]; [3]) | Ranking score (human NTCP [1]; [4]) | B-score binding assay (human NTCP [2]; [5]) | Ranking score (human NTCP [1]; [6]) | B-score functional assay (human NTCP [1]; [7]) | B-score binding assay (human NTCP [2]; [8]) | B-score functional assay (human NTCP [1]; [9]) | Ranking score (human NTCP [1]; [10]) | B-score binding assay (human NTCP [2]; [11]) | further results |
| --- | --- | --- | --- | --- | --- | --- | --- | --- | --- | --- |
| C=C1C[C@H]2[C@@H]3C=C(C)C4=CC(=O)CC[C@]4(C)[C@H]3CC[C@]2(C)[C@@]1(OC(C)=O)C(C)=O [Melengestrol acetate] |  |  |  | 323.966 | -2.447 | 1.224 |  |  |  |  |
| CC12CC3CC(C)(C1)CC(N)(C3)C2 [Memantine Hydrochloride] | 1.46 | 837.42 | -0.02 |  |  |  |  |  |  |  |
| Cc1ccccc1OCC(O)CO (stereo not drawn) [Mephenesin] | -0.317 | 689.632 | 1.192 |  |  |  |  |  |  |  |
| CNC(C)(C)Cc1ccccc1.CNC(C)(C)Cc1ccccc1.O=S(=O)(O)O [Mephentermine hemisulfate] | -0.093 | 728.877 | 0.758 |  |  |  |  |  |  |  |
| CCC1(c2ccccc2)NC(=O)N(C)C1=O (stereo not drawn) [Mephenytoin] | 0.862 | 812.389 | 0 |  |  |  |  |  |  |  |
| CCCNC(C)(C)COC(=O)c1ccccc1 [Meprylcaine hydrochloride] |  |  |  | 382.481 | 0.763 | -1.608 |  |  |  |  |
| S=c1[nH]cnc2nc[nH]c12 [Mercaptopurine] |  |  |  | 451.727 | -0.084 | -0.534 |  |  |  |  |
| C[C@@H](O)[C@H]1C(=O)N2C(C(=O)O)=C(S[C@@H]3CN[C@H](C(=O)N(C)C)C3)[C@H](C)[C@H]12 [Meropenem] |  |  |  |  |  |  | 0.4 | 900.139 | 0.55 |  |
| Nc1ccc(O)c(C(=O)O)c1 [Mesalamine] | -0.331 | 739.887 | 2.828 |  |  |  |  |  |  |  |
| CN1CCCCC1CCN1c2ccccc2Sc2ccc([S+](C)[O-])cc21 (stereo not drawn) [Mesoridazine besylate] |  |  |  |  |  |  | 2.438 | 892.285 | 0.002 |  |
| CN(C)C(=N)N=C(N)N [Metformin hydrochloride] | -0.092 | 761.884 | 1.144 |  |  |  |  |  |  |  |
| CC(=O)/N=c1/sc(S(N)(=O)=O)nn1C [Methazolamide] |  |  |  |  |  |  | 2.368 | 849.129 | -0.041 |  |
| C1N2CN3CN1CN(C2)C3 [Methenamine] |  |  |  |  |  |  | 1.472 | 906.386 | 0.067 |  |
| Cn1cc[nH]c1=S [Methimazole] |  |  |  |  |  |  | 0.936 | 1068.39 | 1.226 |  |
| CSc1ccc2c(c1)C(N1CCN(C)CC1)Cc1ccccc1S2.O=C(O)/C=C\C(=O)O (stereo not drawn) [Methiothepin maleate] |  |  |  | 441.5 | 4.841 | -1.545 |  |  |  |  |
| CN(Cc1cnc2nc(N)nc(N)c2n1)c1ccc(C(=O)N[C@@H](CCC(=O)O)C(=O)O)cc1 [Methotrexate] | 0.045 | 661.494 | -0.007 |  |  |  |  |  |  |  |
| COc1ccc2c(c1)N(C[C@H](C)CN(C)C)c1ccccc1S2.O=C(O)/C=C\C(=O)O [Methotrimeprazine maleat salt] | 1.773 | 734.211 | -0.27 |  |  |  |  |  |  |  |
| C[N+]1(C)[C@@H]2CC[C@H]1C[C@@H](OC(=O)C(CO)c1ccccc1)C2 (stereo partly drawn) [Methylatropine nitrate] |  |  |  | 357.004 | -0.076 | -1.066 |  |  |  |  |
| C[C@](N)(Cc1ccc(O)c(O)c1)C(=O)O [Methyldopa (L,-)] | 1.009 | 793.128 | -0.046 |  |  |  |  |  |  |  |
| CCOC(=O)[C@@](C)(N)Cc1ccc(O)c(O)c1 [Methyldopate hydrochloride] |  |  |  |  |  |  | 0.673 | 1088.5 | 2.397 |  |
| CC[C@@H](CO)NC(=O)[C@@H]1C=C2c3cccc4[nH]cc(c34)C[C@H]2N(C)C1 [Methylergometrine maleate] |  |  |  |  |  |  | 0.963 | 1029.08 | 0.851 |  |
| C[C@H]1NC(=O)NC1=O [Methylhydantoin-5-(D)] |  |  |  | 290.241 | 0.047 | -1.862 |  |  |  |  |
